Measurements reported in patent US12357603B2, “Acyl sulfonamides for treating cancer” (Bayer Aktiengesellschaft, priority 2019, dated 2025).

Key:
[1] = target: Recombinant human His-tagged Kat6a protein (amino acids 194-810) (Homo sapiens (Human), UniProt Q92794); experiment: Kat6a activity assay (TR-FRET, acetylation of biotinylated Histone-H4-derived peptide); assay type: biochemical; details: 60 mins at 22° C., read-out: KAT6A-DPF/HAT domain IC50 [mol/l] (arithmetic mean)
Method in brief: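 Sf9-expressed human His-Kat6a (aa 194-810) incubated 60 min at 22 °C with compounds (0.01-20 μM) in Tris pH 8 buffer containing 220 nM biotinylated H4 peptide (aa 1-24) and 600 nM acetyl-CoA. Acetyl-K8 detected by TR-FRET (665/620 nm ratio); IC50 by four-parameter fit versus DMSO controls.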

[2] = target: Recombinant human GST-tagged Kat6b protein (431-end); experiment: Kat6b activity assay (TR-FRET, acetylation of biotinylated Histone-H4-derived peptide); assay type: biochemical; details: 30 mins at 22° C., read-out: KAT6B activity assay IC50 [mol/l] (arithmetic mean)
Experimental: Kat6b inhibitory activities of the compounds described in the present invention were quantified using a Fluorescence Resonance Energy Transfer (TR-FRET) assay which measures acetylation of a synthetic, biotinylated Histone-H4-derived peptide by the enzyme.
In this case 50 nl DMSO were used instead of compounds. […] IC50 values were determined by regression analysis based on a 4 parameter equation (minimum, maximum, ICM, Hill; Y=Max+(Min−Max)/(1+(X/ICso) Hill) using the Screener Software (Genedata).

[3] = system: ESR1 transcription (luciferase signal in MVLN cells); experiment: Repression of ESR1 transcription, luciferase reporter in MVLN cells; assay type: cell-based; details: Homo sapiens, MVLN, inhibition of luciferase signal in MVLN cells; arithmetic mean
Method in brief: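 MVLN cells (constitutive ER, stably carrying a Vitellogenin A2 hormone-responsive element–luciferase reporter) treated in duplicate; luciferase read after 24 h. Cell density checked by Alamar Blue fluorescence (530/590 nm) after 2 h to exclude cell-loss effects.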

[4] = system: ZR-75-1 cells; experiment: Proliferation assay ZR-75-1 (Alamar Blue, 144 h); assay type: cell-based; details: Homo sapiens, ZR-75-1, 144 h, arithmetic mean, read-out: ZR75-1 proliferation assay, EC50 [M] (arithmetic mean)
Method in brief: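 Cells seeded at 3000/well in RPMI 1640 with 2.5% FBS and treated 24 h later across 2.0×10E-5 to 2.0×10E-9 M (9 dilutions, 0.2% DMSO, triplicate). After 144 h at 37 °C, 5% CO2, viability read by Alamar Blue fluorescence at 590 nm following 2 h reagent incubation.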

[5] = system: MDA-MB-436 cells; experiment: Proliferation assay MDA-MB-436, negative control cell line (Alamar Blue, 144 h); assay type: cell-based; details: Homo sapiens, MDA-MB-436, 144 h, arithmetic mean
Method in brief: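 MDA-MB-436 cells (3000/well, DMEM/Ham's F12 with 2.5% FBS) treated 24 h after plating with compounds at 2.0×10E-5 to 2.0×10E-9 M (9 dilutions, 0.2% DMSO), triplicates, 144 h at 37 °C, 5% CO2. Viability by Alamar Blue, 2 h, fluorescence at 590 nm.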

Sequence of Recombinant human His-tagged Kat6a protein (amino acids 194-810) (Q92794 194-810): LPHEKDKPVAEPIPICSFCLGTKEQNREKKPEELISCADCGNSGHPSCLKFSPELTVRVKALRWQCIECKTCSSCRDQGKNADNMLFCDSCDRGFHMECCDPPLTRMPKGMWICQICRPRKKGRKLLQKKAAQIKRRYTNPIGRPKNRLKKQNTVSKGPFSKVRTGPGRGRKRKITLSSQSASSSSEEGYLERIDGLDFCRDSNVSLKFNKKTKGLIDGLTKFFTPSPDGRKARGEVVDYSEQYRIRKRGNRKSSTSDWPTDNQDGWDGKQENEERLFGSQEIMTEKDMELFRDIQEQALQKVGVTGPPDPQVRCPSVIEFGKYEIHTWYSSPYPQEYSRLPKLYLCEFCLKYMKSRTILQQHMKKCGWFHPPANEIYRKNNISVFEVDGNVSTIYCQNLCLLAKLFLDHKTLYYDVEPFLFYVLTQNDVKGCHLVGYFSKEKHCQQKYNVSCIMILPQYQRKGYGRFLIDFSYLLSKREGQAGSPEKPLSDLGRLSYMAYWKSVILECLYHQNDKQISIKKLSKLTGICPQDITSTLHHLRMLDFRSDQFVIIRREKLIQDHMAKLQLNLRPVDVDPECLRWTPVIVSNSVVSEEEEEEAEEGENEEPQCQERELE

IC50 [1]	IC50 [2]	IC50 [3]	EC50 [5]	Compound	EC50 [4]
599 nM	836 nM	1840 nM	> 20000 nM	CCN(C)c1ccc2cc(C(=O)NS(=O)(=O)c3ccccc3-c3ccccc3)oc2c1 [Example 1, 6-[Ethyl(methyl)amino]-N-(2-phenylphenyl)sulfonyl-benzofuran-2-carboxamide]	8.93e-07 M
4800 nM	5700 nM	3500 nM	> 20000 nM	CCN(C)c1ccc2cc(C(=O)NS(=O)(=O)c3ccccc3)oc2c1 [Example 2, N-(Benzenesulfonyl)-6-[ethyl(methyl)amino]benzofuran-2-carboxamide]	1.08e-05 M
2700 nM	1410 nM	2570 nM	> 20000 nM	CCN(C)c1ccc2cc(C(=O)NS(=O)(=O)c3ccccc3Cl)oc2c1 [Example 4, N-(2-Chlorophenyl)sulfonyl-6-[ethyl(methyl)amino]benzofuran-2-carboxamide]	3.25e-06 M
1100 nM	495 nM	520 nM	> 20000 nM	CCOc1ccccc1S(=O)(=O)NC(=O)c1cc2ccc(N(C)CC)cc2o1 [Example 5, N-(2-Ethoxyphenyl)sulfonyl-6-[ethyl(methyl)amino]benzofuran-2-carboxamide]	8.76e-07 M
1830 nM	4280 nM	> 20000 nM	> 20000 nM	CCOc1ccccc1S(=O)(=O)NC(=O)c1cc2ccc(N(C)c3ccccc3)cc2o1 [Example 6, N-(2-Ethoxyphenyl)sulfonyl-6-(N-methylanilino)benzofuran-2-carboxamide]	> 2e-05 M
9600 nM	> 20000 nM	> 20000 nM	> 20000 nM	CN(c1ccccc1)c1ccc2cc(C(=O)NS(=O)(=O)c3ccccc3)oc2c1 [Example 7]	> 2e-05 M
5030 nM	4400 nM	> 20000 nM	> 20000 nM	CN(c1ccccc1)c1ccc2cc(C(=O)NS(=O)(=O)c3ccccc3Cl)oc2c1 [Example 8, N-(2-Chlorophenyl)sulfonyl-6-(N-methylanilino)benzofuran-2-carboxamide]	> 2e-05 M
900 nM	1490 nM	13600 nM	–	CN(c1ccccc1)c1ccc2cc(C(=O)NS(=O)(=O)c3ccccc3-c3ccccc3)oc2c1 [Example 10, 6-(N-Methylanilino)-N-(2-phenylphenyl)sulfonyl-benzofuran-2-carboxamide]	–
123 nM	205 nM	1930 nM	> 20000 nM	CNc1ccc2cc(C(=O)NS(=O)(=O)c3ccccc3-c3ccccc3)oc2c1 [Example 11, 6-(Methylamino)-N-(2-phenylphenyl)sulfonyl-benzofuran-2-carboxamide]	2.84e-07 M
13.3 nM	18.2 nM	61.7 nM	–	CN(C)c1cc(F)c2cc(C(=O)NS(=O)(=O)c3ccccc3-c3ccccc3)oc2c1 [Example 12, N-([1,1′-Biphenyl]-2-sulfonyl)-6-(dimethylamino)-4-fluoro-1-benzofuran-2-carboxamide]	5.72e-08 M
12.5 nM	11.6 nM	16.7 nM	> 20000 nM	CCOc1ccccc1S(=O)(=O)NC(=O)c1cc2c(F)cc(N(C)C)cc2o1 [Example 13, 6-(Dimethylamino)-N-(2-ethoxybenzene-1-sulfonyl)-4-fluoro-1-benzofuran-2-carboxamide]	2.28e-08 M
112 nM	235 nM	5000 nM	–	CN(C)c1ccc2cc(C(=O)NS(=O)(=O)c3ccc(-c4ccccc4)cc3)oc2c1 [Example 15, N-([1,1′-biphenyl]-4-sulfonyl)-6-(dimethylamino)-1-benzofuran-2-carboxamide]	4.28e-06 M
66.3 nM	50.5 nM	126 nM	> 20000 nM	CN(C)c1ccc2cc(C(=O)NS(=O)(=O)c3ccccc3-c3cccc(Cl)c3)oc2c1 [Example 16, N-(3′-Chloro[1,1′-biphenyl]-2-sulfonyl)-6-(dimethylamino)-1-benzofuran-2-carboxamide]	1.55e-07 M
72.4 nM	64.5 nM	148 nM	> 20000 nM	Cc1ccccc1-c1ccccc1S(=O)(=O)NC(=O)c1cc2ccc(N(C)C)cc2o1 [Example 17, 6-(Dimethylamino)-N-(2′-methyl[1,1′-biphenyl]-2-sulfonyl)-1-benzofuran-2-carboxamide]	3.87e-08 M
137 nM	497 nM	> 20000 nM	–	CN(C)c1ccc2cc(C(=O)NS(=O)(=O)c3cccc4c3OCC4)oc2c1 [Example 30, N-(2,3-Dihydro-1-benzofuran-7-sulfonyl)-6-(dimethylamino)-1-benzofuran-2-carboxamide]	–
53 nM	59.1 nM	–	> 20000 nM	CN(C)c1ccc2cc(C(=O)NS(=O)(=O)c3ccccc3OC(F)(F)F)oc2c1 [Example 31, 6-(Dimethylamino)-N-[2-(trifluoromethoxy)benzene-1-sulfonyl]-1-benzofuran-2-carboxamide]	8.14e-08 M
224 nM	423 nM	–	> 20000 nM	Cc1ccccc1S(=O)(=O)NC(=O)c1cc2ccc(N(C)C)cc2o1 [Example 32, 6-(Dimethylamino)-N-(2-methylbenzene-1-sulfonyl)-1-benzofuran-2-carboxamide]	3.78e-07 M
2720 nM	> 20000 nM	–	> 20000 nM	CN(C)c1ccc2cc(C(=O)NS(=O)(=O)c3ccccc3C#N)oc2c1 [Example 33, N-(2-Cyanobenzene-1-sulfonyl)-6-(dimethylamino)-1-benzofuran-2-carboxamide]	6.26e-06 M
417 nM	504 nM	–	> 20000 nM	CN(C)c1ccc2cc(C(=O)NS(=O)(=O)c3ccccc3F)oc2c1 [Example 34, 6-(Dimethylamino)-N-(2-fluorobenzene-1-sulfonyl)-1-benzofuran-2-carboxamide]	5.78e-07 M
310 nM	450 nM	785 nM	> 20000 nM	CN(C)c1ccc2cc(C(=O)NS(=O)(=O)c3ccccc3-c3ccccc3)sc2c1 [Example 48, N-([1,1′-Biphenyl]-2-sulfonyl)-6-(dimethylamino)-1-benzothiophene-2-carboxamide]	–
48.8 nM	55.4 nM	209 nM	–	Cc1cc(Cl)c2cccc(S(=O)(=O)NC(=O)c3cc4ccc(N(C)C)cc4o3)c2n1 [Example 83, N-(4-Chloro-2-methylquinoline-8-sulfonyl)-6-(dimethylamino)-1-benzofuran-2-carboxamide]	1.13e-06 M
71.2 nM	56.2 nM	62.5 nM	> 20000 nM	COc1cc(C)ccc1S(=O)(=O)NC(=O)c1cc2ccc(N(C)C)cc2o1 [Example 127, 6-(Dimethylamino)-N-(2-methoxy-4-methylbenzene-1-sulfonyl)-1-benzofuran-2-carboxamide]	–
7.91 nM	24 nM	29.1 nM	–	CC(C)c1ccc(OCC2CC2)c(S(=O)(=O)NC(=O)c2cc3ccc(N(C)C)cc3o2)c1 [Example 177, N-[2-(cyclopropylmethoxy)-5-isopropyl-phenyl]sulfonyl-6-(dimethylamino)benzofuran-2-carboxamide]	6.97e-08 M
